Experimental data as given in patent US5962502A, “Polyamidic acid derivatives with antigastrin activity, a method for their preparation, and their pharmaceutical use” (priority 1993, dated 1999).
Where “and” joins values, the source holds several entries; their conditions need not be identical. Identical values can stand only once. Each block holds one compound with its values, some of them ahead of it.

What was measured:
central CCK-B receptor = molecular target: T1, central CCK-B receptor (Cavia porcellus, UniProt H0VZC5); test: Inhibition of the binding of [3-H][N-methyl-N-leucine]CCK-8 to guinea-pig cortical membranes; details: guinea-pig cortical membranes, 150 minutes at 25° C.
T1 construct: Cerebral cortices of male white guinea-pigs were thus used; from tissue; host or cells: cerebral cortex membranes of male white guinea-pigs
T1 sequence (H0VZC5 1-426): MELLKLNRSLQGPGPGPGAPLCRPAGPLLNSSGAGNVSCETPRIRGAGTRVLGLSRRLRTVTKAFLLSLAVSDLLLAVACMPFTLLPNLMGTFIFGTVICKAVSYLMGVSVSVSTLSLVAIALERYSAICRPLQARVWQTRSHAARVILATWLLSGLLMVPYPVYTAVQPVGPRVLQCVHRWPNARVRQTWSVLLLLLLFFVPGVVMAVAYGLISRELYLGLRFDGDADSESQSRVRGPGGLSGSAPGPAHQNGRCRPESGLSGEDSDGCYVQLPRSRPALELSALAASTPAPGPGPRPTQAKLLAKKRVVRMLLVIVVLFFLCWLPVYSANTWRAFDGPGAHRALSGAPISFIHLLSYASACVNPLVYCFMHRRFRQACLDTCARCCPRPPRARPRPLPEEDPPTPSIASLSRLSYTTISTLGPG
Protocol: The ability of the compounds of the invention to interact with the central CCK-B receptor was evaluated with the use of non-sulphated [3-H] […] 225 (3) (1990), 1278-1286].
Cerebral cortices of male white guinea-pigs were thus used, according to the method mentioned above, so as to obtain a membrane content corresponding to about 300 mcg of proteins/ml. The membranes were incubated together with the radioactive tracer and the compounds under test for 150 minutes at 25° C. After the supernatant had been discarded, the radioactivity associated with the pellet was determined with a liquid scintillator. The specific binding was determined as the difference between the binding in the absence and in the presence of 5.10^-6 M CCK-8.

[1] = test system: acid secretion induced by pentagastrin; test: Acid secretion induced by pentagastrin in the anaesthetized rat; format: in vivo; details: iv, 1 h, I.V. bolus, pentagastrin 30 mcg/kg/h, read-out: Activity (ID50), inhibition of the acid secretion induced by pentagastrin
Protocol: The activity of the compounds of the invention against gastric secretion performed by means of a mechanism with an antigastrin effect, was examined in vivo in anaesthetized rats with the use of male animals weighing about 200 g. Gastric secretion was stimulated with pentagastrin and Lai's method [Gut 5, (1964), 327-341 ] was used, with slight modification.
After tracheotomy, the oesophagus and duodenum were cannulated. A tepid solution (37° C.) of 0.25 mM NaOH was perfused and was passed through the stomach by means of a peristaltic pump at a constant flow-rate of 1 ml/minute. After stabilization for 20 minutes, the stimulant, dissolved in a physiological solution, was perfused for 120 minutes at a dose of 30 mcg/kg/h, in a volume of 0.95 ml/hour. After perfusion for 60 minutes (the basal stimulation), the product under test was administered intravenously (I.V.) as a bolus and perfusion of the stimulant was continued for a further 60 minutes. The acid secretion was recorded continuously as a function of time.
The activity of the product was evaluated as the percentage reduction of secreted acidity after the administration of the product, in comparison with the basal acidity measured during the first 60 minutes of collection in the presence of pentagastrin alone.
The antagonistic compounds tested were administered in various doses so that an ID50, that is, the dose (in mg/kg I.V.) which could inhibit the effect of pentagastrin by 50%, could be calculated.

[2] = molecular target: T2, gastrin receptors or type-B cholecystokinin (CCK-B) receptors (Oryctolagus cuniculus, UniProt P46627); test: Inhibition of the gastrin-induced increase of cytosolic calcium in rabbit gastric mucous-membrane cells (Fura 2); format: cell-based; details: for Ratio IC50 Binding cortex / IC50 (gastric mucous cells): binding values taken from Table 3; for IC50, inhibition of the increase of cytosolic calcium: rabbit gastric mucous cells enriched in parietal cells, gastrin 5×10^-8
T2 construct: Rabbit gastric mucous-membrane cells were prepared by conventional techniques; endogenous in cells; host or cells: freshly isolated rabbit gastric mucosal cells, enriched by elutriation to about 70% parietal cells
T2 sequence (P46627 1-452): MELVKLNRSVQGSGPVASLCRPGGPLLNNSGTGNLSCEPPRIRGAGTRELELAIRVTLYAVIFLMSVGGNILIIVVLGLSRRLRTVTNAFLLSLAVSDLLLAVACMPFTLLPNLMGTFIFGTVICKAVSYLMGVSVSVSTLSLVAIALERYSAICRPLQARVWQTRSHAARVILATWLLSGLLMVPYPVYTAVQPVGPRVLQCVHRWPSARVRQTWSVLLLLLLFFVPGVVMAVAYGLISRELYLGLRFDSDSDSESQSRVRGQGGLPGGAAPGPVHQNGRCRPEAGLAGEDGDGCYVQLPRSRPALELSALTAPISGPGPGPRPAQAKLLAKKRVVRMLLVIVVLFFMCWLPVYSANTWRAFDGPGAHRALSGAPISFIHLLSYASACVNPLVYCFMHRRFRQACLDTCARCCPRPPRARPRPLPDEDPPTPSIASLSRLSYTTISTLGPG
Text: The parietal cells of the gastric mucous membrane are responsible for the secretion of HCl. They have specific membrane receptors which can be activated by gastrin and which have been defined as gastrin receptors or type-B cholecystokinin (CCK-B) receptors. Since it has been observed that the activation of the CCK-B receptors by gastrin leads to an increase in the cytosolic levels of calcium ions, a technique involving the measurement of the increase in intracellular calcium induced by gastrin in the presence and in the absence of the compounds of the invention was used as an index of the antigastrin activity of the compounds. Rabbit gastric mucous-membrane cells were prepared by conventional techniques with the use of collagenase and pronase as digestive enzymes. The cellular preparation obtained by the enzymatic digestion was composed of parietal cells, zymogen cells and mucous-membrane cells. […] The cells were then washed and resuspended in a saline solution buffered with HEPES containing, in mM: […] Each measurement was carried out on cells in suspension (0.8×10^6 /ml) at a thermostatically-controlled temperature of 37° C. and with constant magnetic stirring. The fluorescence was recorded with the use of a spectrofluorometer. The operative wavelengths were 340/380 nm for excitation and 505 nm for emission. […] Biol. Chem. 260 (1985), 3440]. […] The results thus obtained for some compounds of the invention are given in Table 4, which also gives an index derived from the ratio between the peripheral antigastrin activity just described and the displacement activity found in the test on binding to the guinea-pig cortex receptors described above.

mouse = test: Black and White Box test in the mouse (anxiolytic activity); format: in vivo; details: for LIGHT TIME TOTAL TIME / LIGHT-DARK MOVEMENTS / MOV. DARK % TOTAL MOV. / TOTAL MOVEMENTS: 5 minutes
Protocol: It has recently been postulated that the central CCK-B receptor has an important role in anxiety. This is in accordance with studies also carried out in man, which have shown that the central CCK-B mechanisms have an important function in the mediation of panic attacks [Bradwejn, H. et al; J. Psychopharmacology 6 (1992), 345]. […] This experimental model, which was carried out according to Costall et al [Pharm. Biochem. Behav. 32 (1989), 777-785], used a box with dimensions of 45×21×21(h) cm divided into 2 compartments which communicated with one another through a 13×5 cm hole. The smaller compartment (1/3 of the total area) had black walls, whereas the larger had transparent walls and was illuminated by a lamp which was placed 20 cm above the box and supplied light at 20W. Under the floor there was an activity meter which recorded the movements performed by the animal in the individual compartments. The experiment was started by placing the animal in the centre of the illuminated box; as well as movements, the time which the animal spent in the dark and in the light areas and the number of movements between the 2 compartments were then recorded for 5 minutes. A control animal generally preferred to stay in the dark compartment where it felt better protected from an unusual environmental situation which put it in a state of anxiety. In this experimental model, a compound having anxiolytic activity decreased the % of movements into the dark in comparison with the total movements, increased the movements between the two light-dark compartments, and increased the % of time spent in the light in comparison with the total time.
The results obtained are shown in Table 7, where the activities obtained with compounds 9, 21 and 51 are given, tested in comparison with diazepam.

IC50 (central CCK-B receptor): 180 nM
Ratio IC50 Binding cortex / IC50 (gastric mucous cells) [2]: 6.0
IC50, inhibition of the increase of cytosolic calcium [2]: 30 nM
SMILES: CN(Cc1ccccc1)C(=O)[C@@H](CCC(=O)O)NC(=O)CC[C@@H](NC(=O)c1cc(Cl)cc(Cl)c1)C(=O)N1CCC2(CCCC2)CC1 [Compound 38]
ED50 [1]: 7 mg/kg and 10.4 µmol/kg

IC50 (central CCK-B receptor): 120 nM
Ratio IC50 Binding cortex / IC50 (gastric mucous cells) [2]: 2.4
IC50, inhibition of the increase of cytosolic calcium [2]: 50 nM
SMILES: CN(C(=O)CC[C@@H](NC(=O)c1cc(Cl)cc(Cl)c1)C(=O)N1CCC2(CCCC2)CC1)c1ccccc1C(=O)O [Compound 51]
EFF. % VS CONTROL (LIGHT TIME TOTAL TIME) (mouse; 0.1 mg/kg IP): 12%
EFF. % VS CONTROL (LIGHT-DARK MOVEMENTS) (mouse; 0.1 mg/kg IP): 19%
EFF. % VS CONTROL (MOV. DARK % TOTAL MOV.) (mouse; 0.1 mg/kg IP): -12%
LIGHT TIME TOTAL TIME (mouse; 0.1 mg/kg IP): 27.0%
LIGHT-DARK MOVEMENTS (mouse; 0.1 mg/kg IP): 17.6
MOV. DARK % TOTAL MOV. (mouse; 0.1 mg/kg IP): 61%
TOTAL MOVEMENTS (mouse; 0.1 mg/kg IP): 472
EFF. % VS CONTROL (LIGHT TIME TOTAL TIME) (mouse; 1.0 mg/kg IP): 48%
EFF. % VS CONTROL (LIGHT-DARK MOVEMENTS) (mouse; 1.0 mg/kg IP): 34%
EFF. % VS CONTROL (MOV. DARK % TOTAL MOV.) (mouse; 1.0 mg/kg IP): -14%
LIGHT TIME TOTAL TIME (mouse; 1.0 mg/kg IP): 35.6%
LIGHT-DARK MOVEMENTS (mouse; 1.0 mg/kg IP): 19.8
MOV. DARK % TOTAL MOV. (mouse; 1.0 mg/kg IP): 59%
TOTAL MOVEMENTS (mouse; 1.0 mg/kg IP): 484
EFF. % VS CONTROL (LIGHT TIME TOTAL TIME) (mouse; 10.0 mg/kg IP): 16%
EFF. % VS CONTROL (LIGHT-DARK MOVEMENTS) (mouse; 10.0 mg/kg IP): 37%
EFF. % VS CONTROL (MOV. DARK % TOTAL MOV.) (mouse; 10.0 mg/kg IP): -10%
LIGHT TIME TOTAL TIME (mouse; 10.0 mg/kg IP): 27.8%
LIGHT-DARK MOVEMENTS (mouse; 10.0 mg/kg IP): 20.3
MOV. DARK % TOTAL MOV. (mouse; 10.0 mg/kg IP): 62%
TOTAL MOVEMENTS (mouse; 10.0 mg/kg IP): 436
anxiolytic activity, result in words (mouse; Black and White Box test, IP): anxiolytic activity without sedative activity
increase in the number of light-dark movements in comparison with the controls (mouse; summary over doses): 20-30%
ED50 [1]: 9 mg/kg and 15.7 µmol/kg

IC50 (central CCK-B receptor): 640 nM
Ratio IC50 Binding cortex / IC50 (gastric mucous cells) [2]: 1.9
IC50, inhibition of the increase of cytosolic calcium [2]: 330 nM
SMILES: O=C(N[C@H](CCC(=O)N1CCCC(C(=O)O)C1)C(=O)N1CCC2(CCCC2)CC1)c1cc(Cl)cc(Cl)c1 (stereo partly drawn) [Compound 58, (R)-1-(piperidine-3-carboxy)-1-oxo-5-(8-azaspiro[4.5]decan-8-yl)-4-(3,5-dichloro-benzoylamino)-5-oxopentanoic acid]
ED50 [1]: 10.1 mg/kg and 18.3 µmol/kg
